In patent EP0755938B1, “Ligated polyoxometalates and method for their synthesis” (THE B.F. GOODRICH COMPANY, priority 1995, dated 1997):

What was measured:
[1] = Solubility test in hexane (Table 1); format: physicochemical
[2] = Solubility of the isolated product in organic solvents, as noted in the synthesis examples; format: physicochemical
[3] = Catalytic activity test: gel time in polymerizing dicyclopentadiene under RIM conditions; conditions: 4°C temperature rise from the initial temperature of 40°C; A and B components mixed in adiabatic chamber; Component B 0.66 wt. percent polyoxometalate catalyst
Protocol: The ligated polyoxomolybdate produced in Examples 1-4 were tested for their activity in polymerizing dicyclopentadiene under conditions of a RIM procedure.
Reaction injection molding components were prepared with the following recipes: Component A contained 88.2 wt. percent dicyclopentadiene/7.17 wt. percent cyclopentadiene trimer/3.52 wt. percent butadiene elastomer/0.5 wt. percent diethylaluminumchloride/0.25 wt. percent 2,4-dimethyl-3-pentanol/0.09 wt. percent n-propyl alcohol/0.18 wt. percent silicon tetrachloride.
Component B contained 88.63 wt. percent dicyclopentadiene/7.19 wt. percent cyclopentadiene trimer 3.52 wt. percent butadiene elastomer/0.66 wt. percent polyoxometalate catalyst.
The A and B components were reactivity tested using two pistons and a static mixer. The A and B components were first drawn into their respective piston of the reactivity tester. The components were then heated to 40°C inside the pistons. Next, the contents of the A and B component pistons of the reactivity tester were emptied through a static mixer into a disposable adiabatic chamber.
The temperature increase during the polymerization in the adiabatic chamber was monitored. The gel time is defined as a 4°C temperature rise from the initial temperature of 40°C.

| Substance | soluble in cyclohexane [2] | soluble in dicyclopentadiene [2] | soluble in hexane [2] | further results |
| --- | --- | --- | --- | --- |
| [(C12H25)3NH4{(C6H5P)2Mo5O21} [Example 34] | soluble |  | soluble |  |
| [(C12H25)3NH]2{(C6H4O2)2MoO2} [Example 32] | soluble |  |  |  |
| [(C12H25)3NH]2{[Br2C6H2(O)(COO)]2MoO2} [Example 29] | soluble |  | soluble |  |
| [(C12H25)3NH]2{[C6H4(O)(COO)]2Mo2O5} [Example 24] | soluble |  | soluble |  |
| [(C12H25)3NH]2{[C10H6(O)(COO)]2Mo2O5} [Example 27] | soluble |  | soluble |  |
| [(C12H25)3NH]2{[CH3C6H3(O)(COO)]2Mo2O5} [Example 28] | soluble |  | soluble |  |
| [(C12H25)3NH]2{[CH3CH(O)(COO)]2Mo2O5} [Example 23] | soluble |  | soluble |  |
| [(C12H25)3NH]4{(C4H9P)2Mo5O21} [Example 17] | readily soluble |  |  | Hexane soluble ([1]; result in words): soluble; soluble in hot hexane [2]: readily soluble |
| [(C12H25)3NH]4{(C6H5P)2Mo5O21} [Example 1] |  |  |  | gel time [3]: 4.4 min |
| [(C12H25)3NH]4{(C6H5P)2Mo5O21} [Example 2] |  | readily soluble | readily soluble | Hexane soluble ([1]; numeric bound): > 99%; gel time [3]: 3.7 min |
| [(C12H25)3NH]4{(C6H5P)2Mo5O21} [Example 10] |  | readily soluble | readily soluble |  |
| [(C12H25)3NH]4{(C6H5P)2Mo5O21} [Example 19] |  | readily soluble | readily soluble |  |
| [(C12H25)3NH]4{(C6H5P)2Mo5O21} [Example 33] | soluble |  | soluble |  |
| [(C12H25)3NH]4{(C6H5P)2W5O21} [Example 9] |  | soluble | soluble | Hexane soluble ([1]; numeric bound): > 99% |
| [(C12H25)3NH]4{(CH3)3CP)2Mo5O21} [Example 8] |  |  |  | Hexane soluble ([1]; result in words): soluble; soluble in cyclohexane/hexane mixture ([2]; cyclohexane/hexane mixture): soluble |
| [(C12H25)3NH]4{(CH3P)2Mo5O21} [Example 15] | soluble |  |  | Hexane soluble ([1]; result in words): soluble; soluble in hot hexane [2]: soluble |
| [(C12H25)3NH]4{[(HOCH2)2CHOP)]2Mo5O21} [Example 13] |  | readily soluble | readily soluble | Hexane soluble ([1]; numeric bound): > 99% |
| [(C12H25)3NH]4{[C6H4(O)(COO)]2Mo4O12} [Example 26] | soluble |  | soluble |  |
| [(C18H37)0.65C16H33)0.35(C14H29)0.05NH]4{(C6H5P)2Mo5O21} [Example 7] | soluble | soluble | soluble | Hexane soluble ([1]; numeric bound): > 99% |
| [(i-C10H21)3NH]4{(C6H5P)2Mo3O21} [Example 3] |  | readily soluble | readily soluble | Hexane soluble ([1]; numeric bound): > 99%; gel time [3]: 3.4 min |
| [C12H25NH]4{[HOC(O)CH2CH2P]2Mo5O21]} [Example 14] |  |  |  | Hexane soluble ([1]; result in words): soluble |

Second part, led by results:

| soluble in cyclohexane [2] | soluble in dicyclopentadiene [2] | soluble in hexane [2] | Substance | further results |
| --- | --- | --- | --- | --- |
| soluble | soluble |  | [(C8H17)3NCH3]4{(C6H5P)2Mo5O21} [Example 5] | Hexane soluble ([1]; numeric bound): < 5% |
| soluble |  | soluble | [(C12H25)3NH]2{(H3NC6H4P)2Mo5O21} [Example 16] | Hexane soluble ([1]; result in words): soluble |
| soluble |  | soluble | [(C12H25)3NH]2{[(OOC)CH2CH(O)(COO)]2Mo4O12} [Example 30] |  |
|  | readily soluble | readily soluble | [(C12H25)3NH]4{(C6H5OP)2Mo5O21} [Example 12] | Hexane soluble ([1]; numeric bound): > 99% |
| soluble |  | soluble | [(C12H25)3NH]4{(C6H5P)2Mo5O21} [Example 35] |  |
| soluble |  | soluble | [(C12H25)3NH]4{(HOP)2Mo5O21} [Example 38] |  |
| soluble |  |  | [(C12H25)3NH]4{(HP)2Mo5O21} [Example 20] |  |
| soluble |  | soluble | [(C12H25)3NH]4{[CH3CH(O)(COO)]2Mo4O12} [Example 22] |  |
| readily soluble |  |  | [(i-C8H17)3NH]4{(C6H5P)2Mo5O21} [Example 4] | Hexane soluble ([1]; numeric bound): < 5%; gel time [3]: 2.5 min; soluble in hot hexane [2]: readily soluble |
